Data: ChEMBL document CHEMBL1201862, “PubChem BioAssay data set” (2004)
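96-well plates; 48 h exposure; 5 concentrations. Endpoints by linear interpolation between flanking doses. Not reached: highest tested concentration assigned. GI50: concentration for 50% inhibition of growth.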 The source made the active and inactive calls. Cut-off read from the data, not from the text of the source: active = GI50 up to about 1.1 µM and inactive = higher.

Legend:
Assay in all cases: growth of human tumour cells (NCI), 48 h
786-0 = test system: 786-0
A498 = test system: A498
A549 = test system: A549
ACHN = test system: ACHN
CAKI-1 = test system: CAKI-1
CCRF-CEM = test system: CCRF-CEM
COLO 205 = test system: COLO 205
DU-145 = test system: DU-145
EKVX = test system: EKVX
HCC 2998 = test system: HCC 2998
HCT-116 = test system: HCT-116
HCT-15 = test system: HCT-15
HL-60 = test system: HL-60
HOP-62 = test system: HOP-62
HOP-92 = test system: HOP-92
HT-29 = test system: HT-29
Hs-578T = test system: Hs-578T
K562 = test system: K562
KM12 = test system: KM12
LOX IMVI = test system: LOX IMVI
M14 = test system: M14
MCF7 = test system: MCF7
MDA-MB-231 = test system: MDA-MB-231
MDA-MB-435 = test system: MDA-MB-435
MDA-N = test system: MDA-N
MOLT-4 = test system: MOLT-4
Malme-3M = test system: Malme-3M
NCI-H226 = test system: NCI-H226
NCI-H23 = test system: NCI-H23
NCI-H460 = test system: NCI-H460
NCI/ADR-RES = test system: NCI/ADR-RES
OVCAR-3 = test system: OVCAR-3
OVCAR-4 = test system: OVCAR-4
OVCAR-5 = test system: OVCAR-5
PC-3 = test system: PC-3
RPMI-8226 = test system: RPMI-8226
RXF 393 = test system: RXF 393
SF-268 = test system: SF-268
SF-295 = test system: SF-295
SF-539 = test system: SF-539
SK-MEL-28 = test system: SK-MEL-28
SK-MEL-2 = test system: SK-MEL-2
SK-MEL-5 = test system: SK-MEL-5
SK-OV-3 = test system: SK-OV-3
SN12C = test system: SN12C
SNB-19 = test system: SNB-19
SR = test system: SR
SW-620 = test system: SW-620
T47D = test system: T47D
TK-10 = test system: TK-10
U-251 = test system: U-251
UACC-257 = test system: UACC-257
UACC-62 = test system: UACC-62
UO-31 = test system: UO-31
IGROV-1 = test system: IGROV-1
NCI-H522 = test system: NCI-H522
OVCAR-8 = test system: OVCAR-8
SNB-75 = test system: SNB-75

Question: With `O=C1Nc2ccc(Br)cc2/C1=N/N1C(=O)C(=O)N(C2CCCCC2)C1=S` as the compound, how does the GI50 (786-0) read?
Answer: 5.46 µM (inactive)

Question: What about the GI50 (A498) of the same compound?
Answer: 3.76 µM (inactive)

Question: And the GI50 (A549)?
Answer: 5.26 µM (inactive)

Question: And the GI50 (ACHN)?
Answer: 4.83 µM (inactive)

Question: What about the GI50 (CAKI-1) of the same compound?
Answer: 3.1 µM (inactive)

Question: What about the GI50 (CCRF-CEM) of the same compound?
Answer: 2.21 µM (inactive)

Question: And the GI50 (COLO 205)?
Answer: 2.92 µM (inactive)

Question: And the GI50 (DU-145)?
Answer: 9.42 µM (inactive)

Question: What about the GI50 (EKVX) of the same compound?
Answer: 4.98 µM (inactive)

Question: And the GI50 (HCC 2998)?
Answer: 3.64 µM (inactive)

Question: What about the GI50 (HCT-116) of the same compound?
Answer: 2.72 µM (inactive)

Question: What about the GI50 (HCT-15) of the same compound?
Answer: 2.42 µM

Question: What about the GI50 (HL-60) of the same compound?
Answer: 2.16 µM (inactive)

Question: What about the GI50 (HOP-62) of the same compound?
Answer: 2.92 µM (inactive)

Question: And the GI50 (HOP-92)?
Answer: 14.4 µM (inactive)

Question: And the GI50 (HT-29)?
Answer: 2.75 µM (inactive)

Question: What about the GI50 (Hs-578T) of the same compound?
Answer: 8.38 µM (inactive)

Question: And the GI50 (K562)?
Answer: 3.69 µM (inactive)

Question: What about the GI50 (KM12) of the same compound?
Answer: 3.48 µM (inactive)

Question: And the GI50 (LOX IMVI)?
Answer: 4.07 µM (inactive)

Question: What about the GI50 (M14) of the same compound?
Answer: 1.64 µM (inactive)

Question: And the GI50 (MCF7)?
Answer: 4.17 µM (inactive)

Question: What about the GI50 (MDA-MB-231) of the same compound?
Answer: 6.64 µM (inactive)

Question: What about the GI50 (MDA-MB-435) of the same compound?
Answer: 1.94 µM (inactive)

Question: And the GI50 (MDA-N)?
Answer: 2.02 µM (inactive)

Question: What about the GI50 (MOLT-4) of the same compound?
Answer: 2.26 µM (inactive)

Question: And the GI50 (Malme-3M)?
Answer: 3.21 µM (inactive)

Question: And the GI50 (NCI-H226)?
Answer: 7.03 µM (inactive)

Question: What about the GI50 (NCI-H23) of the same compound?
Answer: 7.11 µM (inactive)

Question: What about the GI50 (NCI-H460) of the same compound?
Answer: 3.66 µM (inactive)

Question: What about the GI50 (NCI/ADR-RES) of the same compound?
Answer: 3.22 µM (inactive)

Question: What about the GI50 (OVCAR-3) of the same compound?
Answer: 2.47 µM (inactive)

Question: What about the GI50 (OVCAR-4) of the same compound?
Answer: 4.44 µM (inactive)

Question: What about the GI50 (OVCAR-5) of the same compound?
Answer: 9.75 µM (inactive)

Question: What about the GI50 (PC-3) of the same compound?
Answer: 3.52 µM (inactive)

Question: What about the GI50 (RPMI-8226) of the same compound?
Answer: 4.25 µM (inactive)

Question: And the GI50 (RXF 393)?
Answer: 10 µM (inactive)

Question: What about the GI50 (SF-268) of the same compound?
Answer: 6.7 µM (inactive)

Question: And the GI50 (SF-295)?
Answer: 3.16 µM (inactive)

Question: What about the GI50 (SF-539) of the same compound?
Answer: 5.66 µM (inactive)

Question: And the GI50 (SK-MEL-28)?
Answer: 4.07 µM (inactive)

Question: What about the GI50 (SK-MEL-2) of the same compound?
Answer: 1.41 µM (inactive)

Question: What about the GI50 (SK-MEL-5) of the same compound?
Answer: 4.34 µM (inactive)

Question: And the GI50 (SK-OV-3)?
Answer: 4.33 µM (inactive)

Question: What about the GI50 (SN12C) of the same compound?
Answer: 3.43 µM (inactive)

Question: What about the GI50 (SNB-19) of the same compound?
Answer: 9.64 µM (inactive)

Question: And the GI50 (SR)?
Answer: 1.19 µM (inactive)

Question: And the GI50 (SW-620)?
Answer: 3.56 µM (inactive)

Question: And the GI50 (T47D)?
Answer: 2.62 µM (inactive)

Question: And the GI50 (TK-10)?
Answer: 12.2 µM (inactive)

Question: What about the GI50 (U-251) of the same compound?
Answer: 2.93 µM (inactive)

Question: What about the GI50 (UACC-257) of the same compound?
Answer: 9.55 µM (inactive)

Question: And the GI50 (UACC-62)?
Answer: 3.05 µM (inactive)

Question: What about the GI50 (UO-31) of the same compound?
Answer: 1.51 µM (inactive)

Question: For `c1ccc2c3c([nH]c2c1)C1CCCN1CC3` (centres undefined), which GI50 (786-0) is on record?
Answer: > 10 µM (inactive)

Question: And the GI50 (A498)?
Answer: > 10 µM (inactive)

Question: What about the GI50 (ACHN) of the same compound?
Answer: > 10 µM (inactive)

Question: What about the GI50 (CAKI-1) of the same compound?
Answer: > 10 µM (inactive)

Question: And the GI50 (CCRF-CEM)?
Answer: > 10 µM (inactive)

Question: And the GI50 (COLO 205)?
Answer: > 10 µM (inactive)

Question: And the GI50 (DU-145)?
Answer: > 10 µM (inactive)

Question: And the GI50 (EKVX)?
Answer: > 10 µM (inactive)

Question: What about the GI50 (HCC 2998) of the same compound?
Answer: > 10 µM (inactive)

Question: And the GI50 (HCT-15)?
Answer: > 10 µM

Question: And the GI50 (HL-60)?
Answer: > 10 µM (inactive)

Question: What about the GI50 (HOP-62) of the same compound?
Answer: > 10 µM (inactive)

Question: And the GI50 (HOP-92)?
Answer: > 10 µM (inactive)

Question: What about the GI50 (HT-29) of the same compound?
Answer: > 10 µM (inactive)

Question: What about the GI50 (Hs-578T) of the same compound?
Answer: > 10 µM (inactive)

Question: And the GI50 (IGROV-1)?
Answer: > 10 µM (inactive)

Question: What about the GI50 (K562) of the same compound?
Answer: > 10 µM (inactive)

Question: What about the GI50 (KM12) of the same compound?
Answer: > 10 µM (inactive)

Question: What about the GI50 (LOX IMVI) of the same compound?
Answer: > 10 µM (inactive)

Question: And the GI50 (M14)?
Answer: > 10 µM (inactive)

Question: What about the GI50 (MCF7) of the same compound?
Answer: > 10 µM (inactive)

Question: And the GI50 (MDA-MB-231)?
Answer: > 10 µM (inactive)

Question: And the GI50 (MDA-MB-435)?
Answer: > 10 µM (inactive)

Question: What about the GI50 (MDA-N) of the same compound?
Answer: > 10 µM (inactive)

Question: What about the GI50 (MOLT-4) of the same compound?
Answer: > 10 µM (inactive)

Question: And the GI50 (Malme-3M)?
Answer: > 10 µM (inactive)

Question: What about the GI50 (NCI-H226) of the same compound?
Answer: > 10 µM (inactive)

Question: What about the GI50 (NCI-H23) of the same compound?
Answer: > 10 µM (inactive)

Question: What about the GI50 (NCI-H460) of the same compound?
Answer: > 10 µM (inactive)

Question: And the GI50 (NCI-H522)?
Answer: > 10 µM (inactive)

Question: What about the GI50 (NCI/ADR-RES) of the same compound?
Answer: > 10 µM (inactive)

Question: And the GI50 (OVCAR-3)?
Answer: > 10 µM (inactive)

Question: What about the GI50 (OVCAR-4) of the same compound?
Answer: > 10 µM (inactive)

Question: And the GI50 (OVCAR-5)?
Answer: > 10 µM (inactive)

Question: What about the GI50 (OVCAR-8) of the same compound?
Answer: > 10 µM (inactive)

Question: What about the GI50 (PC-3) of the same compound?
Answer: > 10 µM (inactive)

Question: What about the GI50 (RPMI-8226) of the same compound?
Answer: > 10 µM (inactive)

Question: What about the GI50 (RXF 393) of the same compound?
Answer: > 10 µM (inactive)

Question: What about the GI50 (SF-268) of the same compound?
Answer: > 10 µM (inactive)

Question: What about the GI50 (SF-295) of the same compound?
Answer: > 10 µM (inactive)

Question: And the GI50 (SF-539)?
Answer: > 10 µM (inactive)

Question: What about the GI50 (SK-MEL-28) of the same compound?
Answer: > 10 µM (inactive)

Question: And the GI50 (SK-MEL-2)?
Answer: > 10 µM (inactive)

Question: And the GI50 (SK-MEL-5)?
Answer: > 10 µM (inactive)

Question: And the GI50 (SK-OV-3)?
Answer: > 10 µM (inactive)

Question: And the GI50 (SN12C)?
Answer: > 10 µM (inactive)

Question: And the GI50 (SNB-19)?
Answer: > 10 µM (inactive)

Question: What about the GI50 (SNB-75) of the same compound?
Answer: > 10 µM (inactive)

Question: And the GI50 (SR)?
Answer: > 10 µM (inactive)

Question: What about the GI50 (SW-620) of the same compound?
Answer: > 10 µM (inactive)

Question: What about the GI50 (T47D) of the same compound?
Answer: > 10 µM (inactive)

Question: What about the GI50 (TK-10) of the same compound?
Answer: > 10 µM (inactive)

Question: What about the GI50 (U-251) of the same compound?
Answer: > 10 µM (inactive)

Question: And the GI50 (UACC-257)?
Answer: > 10 µM (inactive)

Question: What about the GI50 (UO-31) of the same compound?
Answer: > 10 µM (inactive)
